According to ChEMBL document CHEMBL1201862, “PubChem BioAssay data set” (2004):
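These data come from cells grown in 96-well plates and exposed to compound for 48 hours at five concentrations. GI50 = concentration required for 50% inhibition of growth.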 Active and inactive are the calls of the source. No stated cut-off is given here; in the data, active = GI50 up to about 1.1 µM and inactive = higher.

How the values were obtained:
Test in all cases: DTP human tumour cell line panel, 48 h
RXF 393 = tested on: RXF 393
SR = tested on: SR
SF-295 = tested on: SF-295
HCT-15 = tested on: HCT-15
TK-10 = tested on: TK-10
OVCAR-4 = tested on: OVCAR-4
SF-268 = tested on: SF-268
MDA-MB-231 = tested on: MDA-MB-231
UO-31 = tested on: UO-31
Malme-3M = tested on: Malme-3M
UACC-257 = tested on: UACC-257
NCI/ADR-RES = tested on: NCI/ADR-RES
COLO 205 = tested on: COLO 205
LOX IMVI = tested on: LOX IMVI
HL-60 = tested on: HL-60
SF-539 = tested on: SF-539
U-251 = tested on: U-251
PC-3 = tested on: PC-3
CAKI-1 = tested on: CAKI-1
BT-549 = tested on: BT-549

Structure (SMILES) | GI50 (RXF 393) | GI50 (SR) | GI50 (SF-295) | GI50 (HCT-15) [µM] | GI50 (TK-10) | GI50 (OVCAR-4) | GI50 (SF-268) | GI50 (MDA-MB-231) | GI50 (UO-31) | GI50 (Malme-3M) | GI50 (UACC-257) | GI50 (NCI/ADR-RES) | GI50 (COLO 205) | GI50 (LOX IMVI) | GI50 (HL-60) | GI50 (SF-539) | GI50 (U-251) | GI50 (PC-3) | GI50 (CAKI-1) | GI50 (BT-549)
C#CCN(CC#C)C(=O)C(=O)c1c[nH]c2ccc(OC)cc12 | 16.3 µM (inactive) | 11.1 µM (inactive) | 17.5 µM (inactive) | 15.5 | 14.5 µM (inactive) | > 10 µM (inactive) | 29.5 µM (inactive) | 14.9 µM (inactive) | 8.11 µM (inactive) | 17.2 µM (inactive) | 17.5 µM (inactive) | 21.8 µM (inactive) | 21.6 µM (inactive) | 18.7 µM (inactive) | 3.99 µM (inactive) | 14 µM (inactive) | 14.4 µM (inactive) | – | – | –
O=[PH]1c2ccccc2Nc2ccccc21 | > 100 µM (inactive) | > 100 µM (inactive) | > 100 µM (inactive) | 37.1 | > 100 µM (inactive) | 64.7 µM (inactive) | > 100 µM (inactive) | 45.9 µM (inactive) | – | 80.2 µM (inactive) | > 100 µM (inactive) | > 100 µM (inactive) | > 100 µM (inactive) | > 100 µM (inactive) | 75.7 µM (inactive) | > 100 µM (inactive) | > 100 µM (inactive) | 47.1 µM (inactive) | > 100 µM (inactive) | –
CCOC(=O)C(=CNc1ccc(S(N)(=O)=O)cc1)C(=O)OCC | > 100 µM (inactive) | > 100 µM (inactive) | > 100 µM (inactive) | > 100 | > 100 µM (inactive) | > 100 µM (inactive) | > 100 µM (inactive) | > 100 µM (inactive) | > 100 µM (inactive) | > 100 µM (inactive) | > 100 µM (inactive) | > 100 µM (inactive) | > 100 µM (inactive) | > 100 µM (inactive) | > 100 µM (inactive) | > 100 µM (inactive) | > 100 µM (inactive) | > 100 µM (inactive) | > 100 µM (inactive) | –
CC(O)CNC1=CC(=O)C(=O)c2ccccc21 (centres undefined) | 35.4 µM (inactive) | 16.7 µM (inactive) | 13.5 µM (inactive) | 15 | 28.7 µM (inactive) | 13.2 µM (inactive) | 16 µM (inactive) | 22 µM (inactive) | 17.7 µM (inactive) | 4.15 µM (inactive) | 16 µM (inactive) | – | 7.64 µM (inactive) | 15.9 µM (inactive) | 27.4 µM (inactive) | 19.2 µM (inactive) | 15.8 µM (inactive) | 22.3 µM (inactive) | 18.7 µM (inactive) | –
CC(=O)OCC1OC(Sc2nc(-c3ccc(C)cc3)c(C#N)c(=O)n2C2OC(COC(C)=O)C(OC(C)=O)C(OC(C)=O)C2OC(C)=O)C(OC(C)=O)C(OC(C)=O)C1OC(C)=O (centres undefined) | > 100 µM (inactive) | > 100 µM (inactive) | > 100 µM (inactive) | > 100 | > 100 µM (inactive) | – | > 100 µM (inactive) | – | > 100 µM (inactive) | – | > 100 µM (inactive) | > 100 µM (inactive) | – | > 100 µM (inactive) | – | > 100 µM (inactive) | > 100 µM (inactive) | > 100 µM (inactive) | > 100 µM (inactive) | > 100 µM (inactive)
Cc1ccc(-c2n[nH]c(CC#N)n2)cc1 | > 100 µM (inactive) | > 100 µM (inactive) | > 100 µM (inactive) | 66.1 | > 100 µM (inactive) | > 100 µM (inactive) | > 100 µM (inactive) | – | > 100 µM (inactive) | > 100 µM (inactive) | > 100 µM (inactive) | > 100 µM (inactive) | > 100 µM (inactive) | > 100 µM (inactive) | > 100 µM (inactive) | > 100 µM (inactive) | > 100 µM (inactive) | > 100 µM (inactive) | > 100 µM (inactive) | > 100 µM (inactive)
O=c1c(Cl)c(Cl)cnn1CCCl | 2.09 µM (inactive) | – | 16 µM (inactive) | 2.64 | 15.9 µM (inactive) | 1.57 µM (inactive) | 3.83 µM (inactive) | – | 5.75 µM (inactive) | 2.56 µM (inactive) | 4.46 µM (inactive) | – | 2.24 µM (inactive) | 2.86 µM (inactive) | 2.19 µM (inactive) | 14.1 µM (inactive) | 5.9 µM (inactive) | – | 2.27 µM (inactive) | 3.47 µM (inactive)
O=C(N/N=C/c1ccc(Cl)cc1)c1c(Cl)c(Cl)c(Cl)c(Cl)c1-c1nc2ccccc2[nH]1 | 33 µM (inactive) | 59.2 µM (inactive) | 0.0405 µM (active) | 64.1 | – | – | > 100 µM (inactive) | – | 86.9 µM (inactive) | > 100 µM (inactive) | – | > 100 µM (inactive) | > 100 µM (inactive) | 41.1 µM (inactive) | > 100 µM (inactive) | > 100 µM (inactive) | – | 92.5 µM (inactive) | 46.2 µM (inactive) | > 100 µM (inactive)
CSCSSC | > 100 µM (inactive) | 30.7 µM (inactive) | > 100 µM (inactive) | – | > 100 µM (inactive) | – | > 100 µM (inactive) | – | > 100 µM (inactive) | 77.1 µM (inactive) | > 100 µM (inactive) | > 100 µM (inactive) | > 100 µM (inactive) | 17.7 µM (inactive) | 2.54 µM (inactive) | > 100 µM (inactive) | – | > 80 µM (inactive) | > 21.6 µM (inactive) | > 100 µM (inactive)
Cc1cc(Br)cc(C)c1NC(=O)C(=O)C(C(=O)c1ccc2ccccc2c1)C1OC(=O)c2ccccc21 (centres undefined) | 5.93 µM (inactive) | 2.47 µM (inactive) | 4.59 µM (inactive) | 17.3 | 21.1 µM (inactive) | 5.14 µM (inactive) | 7.98 µM (inactive) | – | 15.8 µM (inactive) | 14.7 µM (inactive) | 10.7 µM (inactive) | – | 16.3 µM (inactive) | 12.1 µM (inactive) | 4.45 µM (inactive) | 2.69 µM (inactive) | 5.78 µM (inactive) | – | 15.7 µM (inactive) | –
Cc1cc(C(C)C)cc(=O)c(O)c1 | > 100 µM (inactive) | > 100 µM (inactive) | > 100 µM (inactive) | > 100 | > 100 µM (inactive) | > 100 µM (inactive) | > 100 µM (inactive) | – | > 100 µM (inactive) | > 100 µM (inactive) | > 100 µM (inactive) | – | > 100 µM (inactive) | > 100 µM (inactive) | > 100 µM (inactive) | > 100 µM (inactive) | > 100 µM (inactive) | – | > 100 µM (inactive) | –
COc1ccc(COC2CC(OC)OC(C)C2OC(=O)c2ccccc2)cc1 (centres undefined) | 19.1 µM (inactive) | 19 µM (inactive) | 38.5 µM (inactive) | 17.8 | 63.7 µM (inactive) | 32.8 µM (inactive) | 39.8 µM (inactive) | – | 22.7 µM (inactive) | 29 µM (inactive) | 40.1 µM (inactive) | – | 34.6 µM (inactive) | 22.6 µM (inactive) | 20.7 µM (inactive) | 54.1 µM (inactive) | 35.5 µM (inactive) | – | 36.5 µM (inactive) | –
O=C(CC(C(=O)c1ccsc1)c1ccsc1)c1ccsc1 (centres undefined) | – | 36.5 µM (inactive) | 73.6 µM (inactive) | 61.4 | > 100 µM (inactive) | 62.1 µM (inactive) | > 100 µM (inactive) | > 100 µM (inactive) | 39.4 µM (inactive) | > 100 µM (inactive) | 58.2 µM (inactive) | 32.1 µM (inactive) | > 100 µM (inactive) | 79.8 µM (inactive) | 35.2 µM (inactive) | > 100 µM (inactive) | > 100 µM (inactive) | 44 µM (inactive) | > 100 µM (inactive) | –
CCCCCCCCCCCCCC[S+](C)C | 1.2 µM (inactive) | 0.538 µM (active) | 3.33 µM (inactive) | 3.93 | 1.71 µM (inactive) | 2.4 µM (inactive) | 1.51 µM (inactive) | 2.23 µM (inactive) | 3.07 µM (inactive) | – | 2.45 µM (inactive) | > 10 µM (inactive) | 1.62 µM (inactive) | 1.79 µM (inactive) | 1.03 µM (active) | 1.27 µM (inactive) | 1.09 µM (active) | 1.24 µM (inactive) | 2.61 µM (inactive) | –
CC(C)(CN1C(=O)C(Cl)=C(Cl)C1=O)CN1C(=O)C(Cl)=C(Cl)C1=O | 6 µM (inactive) | 2.58 µM (inactive) | 24.3 µM (inactive) | 8.63 | 9.02 µM (inactive) | 21.7 µM (inactive) | 19.1 µM (inactive) | – | 31.6 µM (inactive) | 5.74 µM (inactive) | 13.9 µM (inactive) | – | 3.23 µM (inactive) | 12.2 µM (inactive) | 0.552 µM (active) | 20.1 µM (inactive) | 18.1 µM (inactive) | – | 8.15 µM (inactive) | –
CC(=O)NC1C(OCc2ccccc2)OC(CO)C(O)C1OCC(=O)N1CCCC1C(=O)N[C@@H](CCC(=O)NCCCCNc1c2ccccc2nc2cccc([N+](=O)[O-])c12)C(N)=O (some centres undefined) | – | 20.1 µM (inactive) | 53.8 µM (inactive) | 42.8 | 73.8 µM (inactive) | 40.7 µM (inactive) | 31.6 µM (inactive) | – | 45.2 µM (inactive) | 33.3 µM (inactive) | – | > 100 µM (inactive) | 18.6 µM (inactive) | – | – | 77.4 µM (inactive) | 18.9 µM (inactive) | 18.7 µM (inactive) | > 100 µM (inactive) | 17.9 µM (inactive)
CC(=O)/C(=N\O)C(=O)NCCc1ccccc1 | 64.7 µM (inactive) | > 100 µM (inactive) | > 100 µM (inactive) | 41.1 | 45.1 µM (inactive) | > 100 µM (inactive) | > 100 µM (inactive) | – | > 100 µM (inactive) | > 100 µM (inactive) | 57.7 µM (inactive) | – | 45.9 µM (inactive) | 41.8 µM (inactive) | 73.8 µM (inactive) | > 100 µM (inactive) | 63.5 µM (inactive) | – | > 100 µM (inactive) | –
